{
  "source": "patent US20250019385A1",
  "about": "“SPIROCYCLIC ANNULATED 2-AMINO-3-CYANO THIOPHENES AND DERIVATIVES FOR THE TREATMENT OF CANCER” (Boehringer Ingelheim International GmbH, priority 2023, published 2025)",
  "data": [
    {"system": "Ba/F3 cells KRAS G12V", "test": "Ba/F3 proliferation assay (KRAS G12V)", "format": "cell-based", "settings": "Mus musculus, BaF3, 72 h, AlamarBlue viability", "description": "(§1) Ba/F3 cells are ordered from DSMZ (ACC300, Lot17) and grown in RPMI-1640 (ATCC 30-2001)+10% FCS+10 ng/mL IL-3 at 37° C. in 5% […] atmosphere. Plasmids containing KRASG12 mutants (i.e. […], G12C, G12V) are obtained from GeneScript. To generate KRASG12-dependent Ba/F3 models, Ba/F3 cells are transduced with retroviruses containing vectors that harbor KRASG12 isoforms. Platinum-E cells (Cell Biolabs) are used for retrovirus packaging. Retrovirus is added to Ba/F3 cells. To ensure infection, 4 μg/mL polybrene is added and cells are spinfected. Infection efficiency is confirmed by measuring GFP-positive cells using a cell analyzer. Cells with an infection efficiency of 10% to 20% are further cultivated and puromycin selection with 1 μg/mL is initiated. As a control, parental Ba/F3 cells are used to show selection status. Selection is considered successful when parental Ba/F3 cells cultures died. To evaluate the transforming potential of KRASG12 mutations, the growth medium is no longer supplemented with IL-3. Ba/F3 cells harboring the empty vector are used as a control. Approximately ten days before conducting the experiments, puromycin is left out.\n(§2) For proliferation assays, Ba/F3 cells are seeded into 384-well plates at 1.5×1 (M cells/60 μL in growth media (RPMI-1640+10% FCS). Compounds (10 mM stock in DMSO) are added at logarithmic dose series using the ECHO acoustic liquid handler system (Beckman Coulter), normalizing for added DMSO and including DMSO controls. All compound treatments are performed in technical duplicates. For the TO time point measurement, untreated cells are analyzed at the time of compound addition. Treated cells are incubated for 72 h at 37° C. with 5% CO2 and cell viability is measured in the PerkinElmer Envision Multimode Reader using AlamarBlue™ (ThermoFisher) viability stain. Viability (stated as percent of control) is defined as relative fluorescence units RFU of each well divided by the RFU of cells in DMSO controls. IC50 values are determined from viability measurements by non-linear regression using a four-parameter model.", "units": {"IC50": "nM"}, "values": [
      {"smiles": "C[C@H](Oc1nc(-c2noc3c2CCC[C@@]32CCCc3sc(N)c(C#N)c32)nc2c1cnn2[C@@H]1CCOC1)[C@@H]1CCCN1C", "note": "[II-4]", "IC50": 5},
      {"smiles": "C[C@H](Oc1nc(-c2noc3c2CCC[C@@]32CCCc3sc(N)c(C#N)c32)nc2c1CN(c1ncccn1)[C@]21CCOC1)[C@@H]1CCCN1C", "note": "[II-7a]", "IC50": 10},
      {"smiles": "CCn1c(=O)n([C@@H]2CCCOC2)c2nc(-c3onc4c3CCC[C@@]43CCCc4sc(N)c(C#N)c43)nc(OC[C@@]34CCCN3C[C@H](F)C4)c21", "note": "[I-33]", "IC50": 739},
      {"smiles": "CO[C@@H]1C[C@@H]([C@H](C)Oc2nc(-c3noc4c3CCC[C@@]43CCCc4sc(N)c(C#N)c43)nc3c2CN(C2COC2)C[C@]32CCOC2)N(C)C1", "note": "[II-14]", "IC50": 2},
      {"smiles": "CO[C@H]1CCN(C)[C@@H]1[C@H](C)Oc1nc(-c2noc3c2CCC[C@@]32CCCc3sc(N)c(C#N)c32)nc2c1CN(C1COC1)C[C@]21CCOC1", "note": "[II-13]", "IC50": 1},
      {"smiles": "C[C@H](Oc1nc(-c2onc3c2CCC[C@@]32CCCc3sc(N)c(C#N)c32)nc2c1n(C)c(=O)n2[C@@H]1CCOC1)[C@@H]1CCCN1C", "note": "[I-20]", "IC50": 2},
      {"smiles": "Cc1cn([C@@H]2CCOC2)c2nc(-c3onc4c3CCC[C@@]43CCCc4sc(N)c(C#N)c43)nc(O[C@@H](C)[C@@H]3CCCN3C)c12", "note": "[I-41]", "IC50": 78}
    ]},
    {"system": "Ba/F3 cells KRAS G12C", "test": "Ba/F3 proliferation assay (KRAS G12C)", "format": "cell-based", "settings": "Mus musculus, BaF3, 72 h, AlamarBlue viability", "description": "as §1, §2", "units": {"IC50": "nM"}, "values": [
      {"smiles": "C[C@H](Oc1nc(-c2noc3c2CCC[C@@]32CCCc3sc(N)c(C#N)c32)nc2c1cnn2[C@@H]1CCOC1)[C@@H]1CCCN1C", "note": "[II-4]", "IC50": 12},
      {"smiles": "C[C@H](Oc1nc(-c2noc3c2CCC[C@@]32CCCc3sc(N)c(C#N)c32)nc2c1CN(c1ncccn1)[C@]21CCOC1)[C@@H]1CCCN1C", "note": "[II-7a]", "IC50": 10},
      {"smiles": "CCn1c(=O)n([C@@H]2CCCOC2)c2nc(-c3onc4c3CCC[C@@]43CCCc4sc(N)c(C#N)c43)nc(OC[C@@]34CCCN3C[C@H](F)C4)c21", "note": "[I-33]", "IC50": 1600},
      {"smiles": "CO[C@@H]1C[C@@H]([C@H](C)Oc2nc(-c3noc4c3CCC[C@@]43CCCc4sc(N)c(C#N)c43)nc3c2CN(C2COC2)C[C@]32CCOC2)N(C)C1", "note": "[II-14]", "IC50": 3},
      {"smiles": "CO[C@H]1CCN(C)[C@@H]1[C@H](C)Oc1nc(-c2noc3c2CCC[C@@]32CCCc3sc(N)c(C#N)c32)nc2c1CN(C1COC1)C[C@]21CCOC1", "note": "[II-13]", "IC50": 2},
      {"smiles": "C[C@H](Oc1nc(-c2onc3c2CCC[C@@]32CCCc3sc(N)c(C#N)c32)nc2c1n(C)c(=O)n2[C@@H]1CCOC1)[C@@H]1CCCN1C", "note": "[I-20]", "IC50": 4},
      {"smiles": "Cc1cn([C@@H]2CCOC2)c2nc(-c3onc4c3CCC[C@@]43CCCc4sc(N)c(C#N)c43)nc(O[C@@H](C)[C@@H]3CCCN3C)c12", "note": "[I-41]", "IC50": 122}
    ]},
    {"system": "LOVO cells", "test": "LOVO CTG proliferation assay (120 h) (CRC, G13D)", "format": "cell-based", "settings": "Homo sapiens", "description": "LOVO cells (ATCC No. CCL-229) are dispensed into black 384-well plates, flat and clear bottom (Greiner, PNr. 781091) at a density of 1000 cells per well in 60 μl DMEM (Sigma D6429)+10% FCS (fetal calf serum, HyClone, SH30084.03). Cells are incubated overnight at 37° C. in a humidified tissue culture incubator at 5% CO2. Compounds (10 mM stock in DMSO) are added at logarithmic dose series using the ECHO acoustic liquid handler system (Beckman Coulter), normalizing for added DMSO and including DMSO controls. All compound treatments are performed in technical duplicates. For the TO time point measurement, untreated cells are analyzed at the time of compound addition. Plates are incubated for 120 h, and cell viability is measured using CellTiter-Glo luminescent cell viability reagent (Promega product code G7570). Viability (stated as percent of control) is defined as relative luminescence units RLU of each well divided by the RLU of cells in DMSO controls. IC50 values are determined from viability measurements by non-linear regression using a four-parameter model.\nIC50 values of representative compounds according to the invention measured with these assays in the indicated cell lines are presented in Table 46.", "units": {"IC50": "nM"}, "values": [
      {"smiles": "C[C@H](Oc1nc(-c2noc3c2CCC[C@@]32CCCc3sc(N)c(C#N)c32)nc2c1cnn2[C@@H]1CCOC1)[C@@H]1CCCN1C", "note": "[II-4]", "IC50": 24},
      {"smiles": "C[C@H](Oc1nc(-c2noc3c2CCC[C@@]32CCCc3sc(N)c(C#N)c32)nc2c1CN(c1ncccn1)[C@]21CCOC1)[C@@H]1CCCN1C", "note": "[II-7a]", "IC50": 11},
      {"smiles": "CCn1c(=O)n([C@@H]2CCCOC2)c2nc(-c3onc4c3CCC[C@@]43CCCc4sc(N)c(C#N)c43)nc(OC[C@@]34CCCN3C[C@H](F)C4)c21", "note": "[I-33]", "IC50": 891},
      {"smiles": "CO[C@@H]1C[C@@H]([C@H](C)Oc2nc(-c3noc4c3CCC[C@@]43CCCc4sc(N)c(C#N)c43)nc3c2CN(C2COC2)C[C@]32CCOC2)N(C)C1", "note": "[II-14]", "IC50": 18},
      {"smiles": "CO[C@H]1CCN(C)[C@@H]1[C@H](C)Oc1nc(-c2noc3c2CCC[C@@]32CCCc3sc(N)c(C#N)c32)nc2c1CN(C1COC1)C[C@]21CCOC1", "note": "[II-13]", "IC50": 8},
      {"smiles": "C[C@H](Oc1nc(-c2onc3c2CCC[C@@]32CCCc3sc(N)c(C#N)c32)nc2c1n(C)c(=O)n2[C@@H]1CCOC1)[C@@H]1CCCN1C", "note": "[I-20]", "IC50": 6},
      {"smiles": "Cc1cn([C@@H]2CCOC2)c2nc(-c3onc4c3CCC[C@@]43CCCc4sc(N)c(C#N)c43)nc(O[C@@H](C)[C@@H]3CCCN3C)c12", "note": "[I-41]", "IC50": 348}
    ]},
    {"system": "not listed separately", "test": "Plasma protein binding assay (PPB), equilibrium dialysis", "format": "in vitro ADME", "settings": "bovine, 10% FCS in PBS, read-out: PPB 10% FCS (% fu)", "description": "Binding of test compounds to plasma was determined using equilibrium dialysis (ED) and quantitative mass spectrometry interfaced with liquid chromatography (LC-MS). In brief, ED was performed with dialysis devices consisting of two chambers separated by a semipermeable membrane with a molecular weight cut-off of 5-10 kg/mol. One chamber was filled with 10% FCS in PBS containing 1-10 μmol/L test compound and the other chamber was filled with phosphate-buffer saline (PBS) with or without dextran. The dialysis chamber was incubated for 3-5 hours at 37° C. After incubation, protein was precipitated from aliquots of each chamber and the concentration of test compound in the supernatant of the plasma-containing compartment (cserum) and of the buffer-containing compartment (cbuffer) was determined by LC-MS. The fraction of unbound test compound (not bound to plasma) (f) was calculated according to the following equation: […]", "values": [
      {"smiles": "C[C@H](Oc1nc(-c2noc3c2CCC[C@@]32CCCc3sc(N)c(C#N)c32)nc2c1cnn2[C@@H]1CCOC1)[C@@H]1CCCN1C", "note": "[II-4]", "fraction unbound": 0.1},
      {"smiles": "C[C@H](Oc1nc(-c2noc3c2CCC[C@@]32CCCc3sc(N)c(C#N)c32)nc2c1CN(c1ncccn1)[C@]21CCOC1)[C@@H]1CCCN1C", "note": "[II-7a]", "fraction unbound": 0.02},
      {"smiles": "CCn1c(=O)n([C@@H]2CCCOC2)c2nc(-c3onc4c3CCC[C@@]43CCCc4sc(N)c(C#N)c43)nc(OC[C@@]34CCCN3C[C@H](F)C4)c21", "note": "[I-33]", "fraction unbound": 0.02},
      {"smiles": "CO[C@@H]1C[C@@H]([C@H](C)Oc2nc(-c3noc4c3CCC[C@@]43CCCc4sc(N)c(C#N)c43)nc3c2CN(C2COC2)C[C@]32CCOC2)N(C)C1", "note": "[II-14]", "fraction unbound": 0.12},
      {"smiles": "CO[C@H]1CCN(C)[C@@H]1[C@H](C)Oc1nc(-c2noc3c2CCC[C@@]32CCCc3sc(N)c(C#N)c32)nc2c1CN(C1COC1)C[C@]21CCOC1", "note": "[II-13]", "fraction unbound": 0.09},
      {"smiles": "C[C@H](Oc1nc(-c2onc3c2CCC[C@@]32CCCc3sc(N)c(C#N)c32)nc2c1n(C)c(=O)n2[C@@H]1CCOC1)[C@@H]1CCCN1C", "note": "[I-20]", "fraction unbound": 0.28},
      {"smiles": "Cc1cn([C@@H]2CCOC2)c2nc(-c3onc4c3CCC[C@@]43CCCc4sc(N)c(C#N)c43)nc(O[C@@H](C)[C@@H]3CCCN3C)c12", "note": "[I-41]", "fraction unbound": 0.35}
    ]}
  ]
}
